Source: patent US10377747B2, “2-arylamino pyridine, pyrimidine or triazine derivatives, preparation method and use thereof” (Wuxi Shuangliang Biotechnology Co., Ltd., priority 2015, dated 2019)
Like-named read-outs stand apart in the source and are kept apart here.

Columns and labels:
[1] = system: A431 (human epidermal cancer cells, EGFR wild type); assay: Tumor cell proliferation and growth inhibition analysis (Cell Titer-Glo, 72 h), A431; assay type: cell-based; details: A-431, 72 h exposure
From the text: (§1) […] cell proliferation assay is described as follows.
(§2) Tumor cell proliferation and growth inhibition analysis: H1975 (non-small-cell lung cancer cells. EGFR L858K/T790M) and A431 (human epidermal cancer cells, EGFR wild type) cells were commercially available from the ATCC cell bank. […] The growth medium for A431 cells was DMEM (GIBCO, 11995-065), 10% fetal bovine serum. The influence exerted by the compounds on the proliferation activity of tumor cells was detected by Cell Titer-Glo assay. Tumor cells were exposed to the treatment conditions for 72 h, and the cell density used in each experiment for each cell line was adjusted according to the 72 h cell growth curve. 10 concentration gradients and three-fold dilutions (0.5 nM-10 μM) were set for compounds to be tested, and 3 parallel controls were used for each concentration value.
(§3) Trypsin was used for digesting cells in the logrithmic growth phase to prepare cell suspension, which was counted by a Roche counter and appropriately diluted with complete medium to a final cell concentration of 1˜2×10^3 cell/mL. 384-well plates were seeded with cells, and 22.6 μL were seeded for each well. 3 parallels were set. The plates were incubated in an incubator with 5% CO2 at 37° C. overnight. The compounds were dissolved in DMSO to prepare […] mother liquor. […] 2 μL of compound solution was added into 18 μL of culture medium, and fully mixed. Then 2 μL of mixed solution of compound and culture medium was added into 18 μL of culture medium, and fully mixed. 2.4 μL of mixtures were added into a 384-well plates. […] After cultivation for 72 h, 24 μL of Cell Titer-Glo reagent was added. The contents were mixed on an orbital shaker for 2 min to induce cell lysis. The 384-well plates were incubated at room temperature for 10 min to stabilize the […] signal value. Data was read by Infinite® M1000 PRO (TECAN), and calculated with GraphPad Prism version 5.0. GI50 value was obtained by adjustment using a non-linear regression model of dose response curves.

[2] = system: H1975 (non-small-cell lung cancer cells. EGFR L858K/T790M); assay: Tumor cell proliferation and growth inhibition analysis (Cell Titer-Glo, 72 h), H1975; assay type: cell-based; details: Homo sapiens
From the text: as §1, §2, §3

[3] = NCI-H1975, H1975 cells, 72 h exposure, Cell Titer-Glo, read-out: H1975 GI50

SMILES | GI50 [1] [nM] | GI50 [2, 3] [nM] | GI50 ([2]; NCI-H1975, 72 h, read-out: H1975 GI50 (nM)) [nM]
C=CC(=O)Nc1cc(Nc2ncnc(-c3cccc4cc[nH]c34)n2)c(OC)cc1N1CC(N(C)C)C1 [Example 35, N—(5-((4-(1H-indol-7-yl)-1,3,5-triazin-2-yl)amino)-2-(3-(dimethylamino)azetidin-1-yl)-4-methoxyphenyl)acylamide] | 3320 | 1560 | 
C=CC(=O)Nc1cc(Nc2nccc(-c3cn(C)c4cccnc34)n2)c(OC(F)F)cc1N1CC(N(C)C)C1 [Example 20, N-(4-(difluoromethoxy)-2-(3-(dimethylamino)azetidin-1-yl)-5-((4-(1-methyl-1H-pyrrolo[3,2-b]pyridin-3-yl)pyrimidin-2-yl)amino)phenyl)acrylamide] | > 1000 | > 1000 | 
C=CC(=O)Nc1cc(Nc2nccc(-c3nn(C)c4ccsc34)n2)c(OC(F)F)cc1N1CC(N(C)C)C1 [Example 27, N-(4-(difluoromethoxy)-2-(3-(dimethylamino)azetidin-1-yl)-5-((4-(1-methyl-1H-thieno[3,2-c]pyrazol-3-yl)pyrimidin-2-yl)amino)phenyl)acrylamide] | 2540 | 1100 | 
C=CC(=O)Nc1cc(Nc2nccc(-c3cn(C)c4cccnc34)n2)c(OC)cc1N1CC(N(C)C)C1 [Example 14, N-(2-(3-(dimethylamino)azetidin-1-yl)-4-methoxy-5-((4-(1-methyl-1H-pyrrolo[3,2-b]pyridin-3-yl)pyrimidin-2-yl)amino)phenyl)acrylamide] | ~3520 | 1460 | 
C=CC(=O)Nc1cc(Nc2nccc(-c3cn(C)c4ccccc34)n2)c(OC)cc1N(C)CCN(C)C [AZD9291, reference compound] |  |  | 2.8

The next lines start with results.

GI50 [1] [nM] | GI50 [2, 3] [nM] | SMILES | GI50 ([2]; NCI-H1975, 72 h, read-out: H1975 GI50 (nM)) [nM]
~1720 | 49 | C=CC(=O)Nc1cc(Nc2nccc(-c3noc4ccccc34)n2)c(OC(F)F)cc1N1CCN(C)CC1 [Example 7, N-(5-((4-(benzo[d]isoxazol-3-yl)pyrimidin-2-yl)amino)-4-(difluoromethoxy)-2-(4-methylpiperazin-1-yl)phenyl)acrylamide] | 
1240 | 82.4 | C=CC(=O)Nc1cc(Nc2nccc(-c3noc4ccccc34)n2)c(OC)cc1N1CCC(N(C)C)CC1 [Example 3, N-(5-((4-(benzo[d]isoxazol-3-yl)pyrimidin-2-yl)amino)-2-(4-(dimethylamino)piperidin-1-yl)-4-methoxyphenyl)acrylamide] | 
2440 | 110 | C=CC(=O)Nc1cc(Nc2nccc(-c3cn(C)c4cccnc34)n2)c(OC(F)F)cc1N1CC2(CCCN2C)C1 [Example 23, N-(4-(difluoromethoxy)-5-((4-(1-methyl-1H-pyrrolo[3,2-b]pyridin-3-yl)pyrimidin-2-yl)amino)-2-(5-methyl-2,5diazaspiro[3.4]oct-2-yl)phenyl)acryl amide] | 
724 | 184 | C=CC(=O)Nc1cc(Nc2nccc(-c3cn(C)c4cccnc34)n2)c(OC(F)F)cc1N1CCC[C@H]1CN(C)C [Example 22, (S)—N-(4-(difluoromethoxy)-2-(2-((dimethylamino)methyl)pyrrolidin-1-yl)-5-((4-(1-methyl-1H-pyrrolo[3,2-b]pyridin-3-yl)pyrimidin-2-yl)amino)phenyl)acrylamide] | 
1300 | 39.8 | C=CC(=O)Nc1cc(Nc2nccc(-c3cn(C)c4cccnc34)n2)c(OC)cc1N1CC2(CCCN2C)C1 [Example 17, N-(4-methoxy-5-((4-(1-methyl-1H-pyrrolo[3,2-b]pyridin-3-yl)pyrimidin-2-yl)amino)-2-(5-methyl-2,5-diazaspiro[3.4]oct-2-yl)phenyl)acrylamide] | 
1440 | 166 | C=CC(=O)Nc1cc(Nc2nccc(-c3cn(C)c4cccnc34)n2)c(OC(F)F)cc1N1CCN(C)CC1 [Example 19, N-(4-(difluoromethoxy)-5-((4-(1-methyl-1H-pyrrolo[3,2-b]pyridin-3-yl)pyrimidin-2-yl)amino)-2-(4-methylpiperazin-1-yl)phenyl)acrylamide] | 
